Where a SMILES comes first, the peptide text is derived from it. Where no end group is shown, it is not given here. [ ]: non-standard residue; d: D form.
What was measured:
[1] = LPS removal rates of reagents prepared with various peptides; details: for Removal Rate: peptide conjugated to CNBr-activated agarose
Method: To confirm an LPS removal rate by preparing a reagent for removing LPS using peptides other than FP12-NH2, LPS removal rates were compared using the peptides listed in Table 11.
Reagents for removing LPS were prepared in one dose by the method of Example 2-2 for each peptide.
More specifically, the reagent for removing LPS was aliquoted by Lot at 2 mL into 5 mL tubes. After centrifugation, the supernatant was removed with a syringe, 2 mL of PBS was added and mixed up and down and centrifuged. […] The mixture was stirred for 2 hours at room temperature. After centrifugation, the supernatant was transferred to a new tube.

[2] = Binding affinity (Kd) between peptide and LPS by isothermal titration calorimeter (ITC); details: for Kd: 0.2 mM peptide in cell, 2 mM LPS in syringe, PBS, read-out: Kd (calculated by ITC)
Method: FP1 is denoted as wild type (WT), and peptides having point mutations for various parts in WT were prepared (FP3, FP5, FP6, and FP9). To increase the interaction with LPS in the residue sequence of FP3, peptides were designed based on an FP3 and LPS-binding model (FP12-NH2 and FP13-NH2), and non-natural amino acid and amino acid isomers (allomeric D-type amino acids) were additionally introduced, thereby designing peptides (allD FP12-NH2, allD FP13-NH2, allD FP-13-9a, allD FP-13-9w, allD FP-13-9k, and allD FP13-NH2 (AcOH)). In addition, an N-terminal PEGylated peptide (PEG-allD FP13-NH2(AcOH)) was additionally designed and synthesized by Anygen Co. Ltd., and then supplied. Using each of the provided peptides, lipopolysaccharide (LPS), and an isothermal titration calorimeter (ITC) for measuring binding affinity (Kd), binding affinity with LPS was confirmed.
Specifically, a method of analyzing binding affinity (Kd) between a peptide and LPS is as follows.
The binding affinity was measured using Malvern MicroCal PEAQ-ITC cell equipment, and to confirm the interaction with LPS, pre-treatment was performed as follows. The volume and shape of a cell sample were 300 μL, coin-shaped, and fixed-in-place; and the syringe rotation rate was 1,200 rpm; and temperatures were 30° C., 35° C., and 25° C.
Before the test, LPS and the peptide were diluted with PBS in advance, thereby obtaining 2 mM LPS and a 0.2 mM peptide. 300 μL of the peptide was put into cells in an ITC device, which had been washed, and 40 μL of LPS was contained in a syringe. Measurement conditions for ITC (temperature, the number of injections) were set, the syringe was inserted into the cell, and the ITC measurement began. When the measurement was completed, the Kd values of LPS and the peptide were calculated through analysis.

| Compound | Removal Rate ([1]; feeding LPS 100,000 EU/ml) [%] | LPS binding affinity compared with FP1 (wild type, WT) [2] | Kd [2] [µM] | Removal Rate ([1]; feeding LPS 10,000 EU/ml) [%] | LPS removal rate, comparison of all polypeptides ([1]; peptides of Table 11 conjugated to CNBr-activated agarose) |
| --- | --- | --- | --- | --- | --- |
| CC(C)C[C@@H](NC(=O)[C@H](N)CCCNC(=N)N)C(=O)N[C@H](CCCNC(=N)N)C(=O)N[C@@H](C(=O)N[C@H](CCCCN)C(=O)N[C@H](CC(C)C)C(=O)N[C@H](CCCNC(=N)N)C(=O)N[C@H](CCCNC(=N)N)C(=O)N[C@H](Cc1ccc(O)cc1)C(=O)N[C@H](CC(C)C)C(=O)N[C@H](CCCNC(=N)N)C(N)=O)C(C)C [allD FP12-NH2, RLRVKLRRYLR-NH2] (H-[dR][dL][dR][dV][dK][dL][dR][dR][dY][dL][dR]-NH2; N-terminus assumed) | 58.6 | the same as or higher than FP1 | 26.6 | – | – |
| CC(C)C[C@@H](NC(=O)[C@H](N)CCCCN)C(=O)N[C@H](CCCNC(=N)N)C(=O)N[C@@H](C(=O)N[C@H](CCCCN)C(=O)N[C@H](CC(C)C)C(=O)N[C@H](CCCNC(=N)N)C(=O)N[C@H](CCCNC(=N)N)C(=O)N[C@H](Cc1ccc(O)cc1)C(=O)N[C@H](CC(C)C)C(=O)N[C@H](CCCNC(=N)N)C(N)=O)C(C)C [allD FP13-NH2, KLRVKLRRYLR-NH2] (H-[dK][dL][dR][dV][dK][dL][dR][dR][dY][dL][dR]-NH2; N-terminus assumed) | 57.7 | the same as or higher than FP1 | 4.78 | – | – |
| CC(C)C[C@@H](NC(=O)[C@H](N)CCCCN)C(=O)N[C@H](CCCNC(=N)N)C(=O)N[C@@H](C(=O)N[C@H](CCCCN)C(=O)N[C@H](CC(C)C)C(=O)N[C@H](CCCNC(=N)N)C(=O)N[C@H](CCCNC(=N)N)C(=O)N[C@H](CCCCN)C(=O)N[C@H](CC(C)C)C(=O)N[C@H](CCCNC(=N)N)C(N)=O)C(C)C [allD-FP-13-9k-NH2, Klrvklrrklr-NH2] (H-[dK][dL][dR][dV][dK][dL][dR][dR][dK][dL][dR]-NH2; N-terminus assumed) | – | the same as or higher than FP1 | 1.99 | – | – |
| CC(C)C[C@@H](NC(=O)[C@H](N)CCCCN)C(=O)N[C@H](CCCNC(=N)N)C(=O)N[C@@H](C(=O)N[C@H](CCCCN)C(=O)N[C@H](CC(C)C)C(=O)N[C@H](CCCNC(=N)N)C(=O)N[C@H](CCCNC(=N)N)C(=O)N[C@H](Cc1c[nH]c2ccccc12)C(=O)N[C@H](CC(C)C)C(=O)N[C@H](CCCNC(=N)N)C(N)=O)C(C)C [allD-FP-13-9w-NH2, Klrvklrrwlr-NH2] (H-[dK][dL][dR][dV][dK][dL][dR][dR][dW][dL][dR]-NH2; N-terminus assumed) | – | the same as or higher than FP1 | 17.4 | – | – |
| CC(C)C[C@@H](NC(=O)[C@H](N)CCCCN)C(=O)N[C@H](CCCNC(=N)N)C(=O)N[C@@H](C(=O)N[C@H](CCCCN)C(=O)N[C@H](CC(C)C)C(=O)N[C@H](CCCNC(=N)N)C(=O)N[C@H](CCCNC(=N)N)C(=O)N[C@H](Cc1ccc(O)cc1)C(=O)N[C@H](CC(C)C)C(=O)N[C@H](CCCNC(=N)N)C(N)=O)C(C)C [allD-FP-13-NH2 (AcOH), KLRVKLRRYLR-NH2] (H-[dK][dL][dR][dV][dK][dL][dR][dR][dY][dL][dR]-NH2; N-terminus assumed) | – | the same as or higher than FP1 | 19.5 | – | – |
| KLGVEAKRYLD [FP1(WT), KLGVEAKRYLD, reference compound] | – | – | 238 | – | – |
| KLGVEAKRYLR [FP3, KLGVEAKRYLR] | – | the same as or higher than FP1 | 332 | – | – |
| KLGVEALRYLD [FP9, KLGVEALRYLD] | – | the same as or higher than FP1 | 326 | – | – |
| KLRVKLRRYLR-NH2 [FP13-NH2, KLRVKLRRYLR-NH2] | – | the same as or higher than FP1 | 118 | 94.8 | – |
| LRLGVEAKRYLR [FP5, LRLGVEAKRYLR] | – | the same as or higher than FP1 | 854 | – | – |
| LRLGVELKRYLR [FP6, LRLGVELKRYLR] | – | the same as or higher than FP1 | 11.1 | – | – |
| RLRVKLRRYLR-NH2 [FP12-NH2, RLRVKLRRYLR-NH2] | 79.4 | the same as or higher than FP1 | 0.242 | 99.9 | the highest removal rate |

— US20230287048A1, “COMPOSITION AND KIT FOR REMOVING LIPOPOLYSACCHARIDE” (HLB SCIENCE INC., priority 2020, published 2023)
